Source: patent US11617730B2, “Pharmaceutical formulation for administering paracetamol by buccal/gingival route” (Unither Pharmaceuticals, priority 2017, dated 2023)

Tests used:
[1] = DOSY 1H-NMR measurement of diffusion coefficients and hydrodynamic radius (Stokes-Einstein); assay type: physicochemical; conditions: in ethanol; reference samples, 25° C.
Text: For the purposes of the present invention, “hydrodynamic radius”, or RH, means the radius of a solute in solution, said solute being assumed to be spherical, as defined by the following Stokes-Einstein relation [Edward, J. T. (1970) J. Chem. Educ. 47, 261; Einstein, A. (1905) Annalen Der Physik 17, 549-560; Einstein, A. (1906) Annalen Der Physik 19, 371-381]:
[formula] • D is the diffusion coefficient of the solute in the solvent (expressed in m^2·s^−1), • kB is the Boltzmann constant, and is kB=1.3806·10^−23 J·K^−1, • T is the temperature of the medium (expressed in K), • ρ is the viscosity of the medium (expressed in Pa·s, or equivalent in kg·s^−1·m^−1), and • RH is expressed in m. […]
The sizes of molecules in solution can be estimated by liquid NMR using so-called diffusion experiments to measure the diffusion coefficients of species in solution. The experiment is performed by applying a magnetic field gradient in a given direction, the direction in which the diffusion of particles is measured. […]
This table also includes viscosity values obtained from the literature [Khattab, I. S., Bandarkar, F., Fakhree, M. A. A., and Jouyban, A. (2012) Korean J. Chem. Eng. 29, 812-817], the mole fraction of ethanol and the hydrodynamic radius calculated from the Stokes-Einstein equation. The accuracy of the value thus calculated is estimated at ±0.1 Å. […]

[2] = Stability / pre-stability studies of paracetamol in hydroalcoholic solution; assay type: physicochemical

RH of paracetamol [1]: 4.2 Å
Coloration in pre-stability studies ([2]; 6 months at 40° C., concentration greater than 115 mg/mL): appearance of pink coloration
Recrystallization in stability studies ([2]; concentration too high, typically above 125 mg/mL): recrystallizes over time
SMILES: CC(=O)Nc1ccc(O)cc1 [paracetamol]
